In patent US3931197A, “Substituted piperidine derivatives” (Richardson-Merrell Inc., priority 1974, dated 1976) one finds ED50 data, which are given here for six compounds.

Structures are written as SMILES.

The subject of this assay is wheals induced by intradermal injections of 1γ of histamine. In words: reduction by 50% of wheals induced by intradermal injections of histamine in guinea pigs. To be noted: Cavia porcellus, po, 1 h, orally administered one hour prior to intradermal injection of 1γ histamine, read-out: ED50 (amount of compound required to reduce by 50% wheals induced by intradermal injections of histamine). Type of assay: in vivo. The text has this:
To illustrate the utility of the compounds of this invention the following tabulation indicates the amount of certain representative compounds of this invention required to reduce by 50% wheals induced by intradermal injections of 1γ of histamine into guinea pigs. Each compound was orally administered one hour prior to the histamine injection.
As a reminder, the ED50 is the dose at which the effect has come halfway, by size or by number of responders. Take `Cc1ccc(C(O)(c2ccccc2)C2CCN(CCCC(=O)c3ccc(C(C)(C)C)cc3)CC2)cc1.Cl` (stereo not drawn) [4'-tert-Butyl-4-[4-[α-hydroxy-α-(p-tolyl)benzyl]piperidino]-butyrophenone hydrochloride]: the ED50 was found to be 6 mg/kg.

For the compound `CC(C)(C)Cc1ccc(C(=O)CCCN2CCC(C(O)(c3ccccc3)c3ccccc3)CC2)cc1.Cl` [4-[4-(α-Hydroxy-α-phenylbenzyl)piperidino]-4'-neopentyl-butyrophenone hydrochloride], the ED50 amounted to 0.5 mg/kg.

Take `Cl.O=C(CCCN1CCC(C(O)(c2ccccc2)c2ccccc2)CC1)c1ccc2ccccc2c1` [4-[4-(α-Hydroxy-α-phenylbenzyl)piperidino]-1-(2-naphthyl)-butan-1-one hydrochloride]: the ED50 is 3.6 mg/kg.

Regarding `Cl.O=C(CCCN1CCC(C(O)(c2ccccc2)c2ccccc2)CC1)c1ccc(C2CCCC2)cc1` [4'-Cyclopentyl-4-[4-(α-hydroxy-α-phenylbenzyl)piperidino]-butyrophenone hydrochloride], the ED50 turned out to be 2.5 mg/kg.

`CC(C)(C)c1ccc(C(=O)CCCN2CCC(C(O)(c3ccccc3)c3ccc(Cl)cc3)CC2)cc1.Cl` (stereo not drawn) [4'-tert-Butyl-4-[4-[α-hydroxy-α-(p-chlorophenyl)benzyl]-piperidino]butyrophenone hydrochloride]: the 50% effective dose (ED50) was found to be 27 mg/kg.

As to `Cc1ccc(C(=C2CCN(CCCC(=O)c3ccc(C(C)(C)C)cc3)CC2)c2ccccc2)cc1.Cl` [4'-tert-Butyl-4-[4-[α-(p-tolyl)benzylidene]piperidino]-butyrophenone hydrochloride], the ED50 was around 10 mg/kg.
